In one data set the target is T1, Histone deacetylase 8 (Homo sapiens, UniProt Q9BY41).
T1 sequence (Q9BY41 whole entry): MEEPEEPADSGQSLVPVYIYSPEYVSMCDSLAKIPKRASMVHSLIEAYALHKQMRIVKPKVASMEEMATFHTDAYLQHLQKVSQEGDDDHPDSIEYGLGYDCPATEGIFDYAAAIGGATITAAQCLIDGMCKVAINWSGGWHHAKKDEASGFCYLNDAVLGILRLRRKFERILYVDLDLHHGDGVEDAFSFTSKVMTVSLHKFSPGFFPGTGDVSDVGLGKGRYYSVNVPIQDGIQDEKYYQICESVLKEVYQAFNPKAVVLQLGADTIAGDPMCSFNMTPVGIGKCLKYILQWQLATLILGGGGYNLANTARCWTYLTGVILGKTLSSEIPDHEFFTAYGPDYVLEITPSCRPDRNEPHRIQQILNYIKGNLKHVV
Briefly: Inhibition of HDAC8 catalytic domain (unknown origin) expressed in Escherichia coli BL21 (DE3) using GRKacFGC as substrate after 60 mins by SAMDI mass spectrometric analysis.

The target of data set [1] is T2, Protein deacetylase HDAC6 (Homo sapiens) (UniProt Q9UBN7).
T2 sequence (whole entry): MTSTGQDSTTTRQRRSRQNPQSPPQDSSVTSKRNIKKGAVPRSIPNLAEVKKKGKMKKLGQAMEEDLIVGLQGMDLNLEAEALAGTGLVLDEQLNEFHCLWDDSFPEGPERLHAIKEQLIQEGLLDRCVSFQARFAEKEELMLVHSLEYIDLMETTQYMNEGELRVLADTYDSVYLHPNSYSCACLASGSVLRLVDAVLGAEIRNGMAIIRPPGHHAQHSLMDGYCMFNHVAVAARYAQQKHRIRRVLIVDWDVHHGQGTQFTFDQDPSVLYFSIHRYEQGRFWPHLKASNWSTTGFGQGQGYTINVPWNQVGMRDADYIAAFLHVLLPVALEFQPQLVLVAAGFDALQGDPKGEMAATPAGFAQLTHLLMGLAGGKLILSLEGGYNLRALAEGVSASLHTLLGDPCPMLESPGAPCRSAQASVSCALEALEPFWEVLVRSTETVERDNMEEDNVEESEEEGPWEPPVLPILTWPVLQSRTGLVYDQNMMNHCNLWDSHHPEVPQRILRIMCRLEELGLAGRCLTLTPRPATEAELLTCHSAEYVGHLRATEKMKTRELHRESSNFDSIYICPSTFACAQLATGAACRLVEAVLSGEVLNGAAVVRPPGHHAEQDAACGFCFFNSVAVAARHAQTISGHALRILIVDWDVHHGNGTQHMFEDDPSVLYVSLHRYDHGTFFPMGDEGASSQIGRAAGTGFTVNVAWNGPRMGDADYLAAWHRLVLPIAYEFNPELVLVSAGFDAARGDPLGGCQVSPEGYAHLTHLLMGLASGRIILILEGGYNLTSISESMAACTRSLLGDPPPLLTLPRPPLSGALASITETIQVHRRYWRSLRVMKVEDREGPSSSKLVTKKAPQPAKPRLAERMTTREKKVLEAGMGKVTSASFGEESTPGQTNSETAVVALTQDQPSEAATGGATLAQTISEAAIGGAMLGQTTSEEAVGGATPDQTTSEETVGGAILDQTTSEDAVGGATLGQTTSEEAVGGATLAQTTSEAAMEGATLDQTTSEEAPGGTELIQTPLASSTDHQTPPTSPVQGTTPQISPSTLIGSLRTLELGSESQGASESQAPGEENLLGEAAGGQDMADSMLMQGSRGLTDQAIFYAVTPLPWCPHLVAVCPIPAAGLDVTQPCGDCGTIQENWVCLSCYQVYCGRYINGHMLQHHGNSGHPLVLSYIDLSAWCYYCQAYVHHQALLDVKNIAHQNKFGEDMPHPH
Kind of data set: Inhibition of HDAC6 (unknown origin) expressed in Escherichia coli BL21 (DE3) using GRKacYGC as substrate at 10 uM after 60 mins by SAMDI mass spectrometric analysis relative to control.

In data set [2] the target is Histone deacetylase 1 (Homo sapiens) (UniProt Q13547). Briefly: Inhibition of HDAC1 (unknown origin) expressed in Escherichia coli BL21 (DE3) using GRKacFGC as substrate at 10 uM after 60 mins by SAMDI mass spectrometric analysis relative to control.
Sequence of Histone deacetylase 1 (Homo sapiens) (Q13547 whole entry): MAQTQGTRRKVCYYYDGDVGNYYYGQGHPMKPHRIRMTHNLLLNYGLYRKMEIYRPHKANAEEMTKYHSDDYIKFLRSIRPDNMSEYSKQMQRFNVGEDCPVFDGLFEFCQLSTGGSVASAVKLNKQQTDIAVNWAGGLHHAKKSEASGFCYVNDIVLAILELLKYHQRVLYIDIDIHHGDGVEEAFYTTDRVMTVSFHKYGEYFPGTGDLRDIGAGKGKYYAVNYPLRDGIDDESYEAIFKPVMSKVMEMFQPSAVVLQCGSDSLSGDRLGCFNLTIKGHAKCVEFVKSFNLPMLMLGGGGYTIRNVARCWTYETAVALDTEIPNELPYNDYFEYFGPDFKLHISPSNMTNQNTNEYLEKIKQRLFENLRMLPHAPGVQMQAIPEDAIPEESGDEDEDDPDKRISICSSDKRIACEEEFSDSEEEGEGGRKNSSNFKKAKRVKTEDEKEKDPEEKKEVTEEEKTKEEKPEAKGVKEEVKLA
Data set [3] addresses T3, Histone deacetylase 8 (Homo sapiens) (UniProt Q9BY41).
T3 sequence (whole entry): T1 sequence (Q9BY41 whole entry)
Kind of data set: Inhibition of HDAC8 catalytic domain (unknown origin) expressed in Escherichia coli BL21 (DE3) using GRKacFGC as substrate at 10 nM to 1 mM after 60 mins by SAMDI mass spectrometric analysis.

Data set [4] deals with T2, Protein deacetylase HDAC6 (Homo sapiens). Briefly: Inhibition of HDAC6 (unknown origin) expressed in Escherichia coli BL21 (DE3) using GRKacYGC as substrate at 10 nM to 1 mM after 60 mins by SAMDI mass spectrometric analysis.
Data set [5] concerns the target Histone deacetylase 1 (Homo sapiens) (UniProt Q13547). Briefly: Inhibition of HDAC1 (unknown origin) expressed in Escherichia coli BL21 (DE3) using GRKacFGC as substrate at 10 nM to 1 mM after 60 mins by SAMDI mass spectrometric analysis.
Data set [6] in a line: Aqueous solubility of the compound […] at room temperature by UV-vis spectrophotometric analysis. The class given is physicochemical.
Data set [7] is described as follows: Cytotoxicity against human Jurkat gamma1 cells assessed as growth inhibition after 72 hrs by MTS assay. The class given is functional, cell-based.
The next data set relates to Jurkat. Kind of data set: cells. The format is functional, cell-based. The note with it: Homo sapiens, 72 h.
A further data set deals with DU-145. Kind of data set: cells. The settings on record: Homo sapiens, DU-145, 72 h. The class given is functional, cell-based.
Data set [8] addresses T4, Protein deacetylase HDAC6 (Homo sapiens, UniProt Q9UBN7).
T4 sequence (Q9UBN7 whole entry): T2 sequence (whole entry)
Briefly: Inhibition of HDAC6 (unknown origin) expressed in Escherichia coli BL21 (DE3) using GRKacYGC as substrate after 60 mins by SAMDI mass spectrometric analysis.

Another data set has as its system LNCaP. Briefly: cells. The note with it: Homo sapiens, 72 h.
The next data set relates to Vero. Briefly: Cytotoxicity against African green monkey Vero cells assessed as growth inhibition after 72 hrs by MTS assay. The class given is cell-based. The note with it: Chlorocebus sabaeus. In general terms: Tetrazolium dyes change colour on reduction, which living cells bring about.

The source made the active and inactive calls. The rule behind the calls is not given here.

26 compounds from ChEMBL document CHEMBL3108745, “Synthesis and structure-activity relationship of 3-hydroxypyridine-2-thione-based histone deacetylase inhibitors” (J Med Chem, 2013) can be followed below.

Description for DU-145: Cytotoxicity against androgen-independent human DU145 cells assessed as growth inhibition after 72 hrs by MTS assay
Description for Jurkat: Cytotoxicity against human Jurkat cells assessed as growth inhibition after 72 hrs by MTS assay
Description for LNCaP: Cytotoxicity against androgen-dependent human LNCAP cells assessed as growth inhibition after 72 hrs by MTS assay

A word on the IC50: it is the midpoint of a concentration-inhibition curve. What is called inhibition is the drop in the measured response relative to a control, in per cent. Compound `Oc1cccn(CCCCCCn2cc(-c3ccccc3)nn2)c1=S` gave an IC50 against Histone deacetylase 8 of 6.75 µM. For the same compound, the inhibition was 22% in data set [1] and < 20% in [2].
For the compound `N#Cc1ccc(-c2cn(CCCCCn3cccc(O)c3=O)nn2)cc1`, the inhibition entry in data set [3], in data set [4] and in [5] was “inactive” throughout.
For `N#Cc1ccc(-c2cn(CCCCCn3cccc(O)c3=O)nn2)cc1C(F)(F)F`, the inhibition entry in [3], in data set [4] and in data set [5] was “inactive” in each case.
Regarding `O=c1c(O)cccn1CCCCn1cc(-c2ccccc2)nn1`, the inhibition result in data set [3], in [4] and in [5] was “inactive” throughout.
For the compound `N#Cc1cccc(-c2cn(CCCCCn3cccc(O)c3=O)nn2)c1`, the inhibition result in data set [3], in [4] and in [5] was “inactive” in each case.
For the compound `Oc1cccn(CCCCCCCn2cc(-c3ccccc3)nn2)c1=S`, in data set [6], the solubility entry was “soluble”. For the same compound, the concentration for half-maximal inhibition (IC50) is > 20 µM in data set [7]; 9.04 µM with Jurkat; 17.7 µM in the data set with DU-145; 1.38 µM on Histone deacetylase 8; 0.955 µM in [8]; 11 µM in the data set with LNCaP. For the same compound, the inhibition in [2] is < 20%.
Regarding `CN(C)c1ccc(-c2cn(CCCCCn3cccc(O)c3=O)nn2)cc1`, the inhibition entry in data set [3], in data set [4] and in data set [5] was “inactive” in each case.
On to `Cc1ccc(-c2cn(CCCCCn3cccc(O)c3=S)nn2)cc1`, for which the IC50 on Histone deacetylase 8 is 2.53 µM; in data set [8], 0.807 µM. For the same compound, the inhibition in [2] was < 20%.
Take `CN1CCc2c(c3ccccc3n2Cc2ccc(C(=O)NO)cc2)C1` [TUBASTATIN A]: the values for the IC50 in the data set on Vero, in the data set on Jurkat and with LNCaP were > 20 µM, 3.38 µM and 10.9 µM, respectively.
On to `O=c1c(O)cccn1CCCCCCCn1cc(-c2ccccc2)nn1`, for which the inhibition result in data set [3], in data set [4] and in data set [5] was “inactive” each time.
With `N#Cc1ccc(-c2cn(CCCCCn3cccc(O)c3=S)nn2)cc1`, the inhibition in data set [2] is < 20%.
As for `Oc1cccn(Cc2cn(-c3ccccc3)nn2)c1=S`, the values for the inhibition in data set [1] and in data set [2] were 41% and < 20%, respectively.
`O=c1c(O)cccn1CCCCCCn1cc(-c2ccccc2)nn1`: the inhibition entry in data set [3], in [4] and in [5] was “inactive” throughout.
For the compound `Cc1cccc(-c2cn(CCCCCn3cccc(O)c3=O)nn2)c1`, the inhibition entry in data set [3], in data set [4] and in data set [5] was “inactive” throughout.
With `Cc1ccccc1-c1cn(CCCCCn2cccc(O)c2=S)nn1`, the solubility result in data set [6] is recorded as “soluble”. For the same compound, the IC50 came out at 5.18 µM in the data set with Jurkat; 11.1 µM in the data set with DU-145; 2.4 µM against Histone deacetylase 8; 0.637 µM in data set [8]; 4.95 µM in the data set with LNCaP. Further, in data set [2], the inhibition was < 20%.
On to `Cc1ccccc1-c1cn(CCCCCn2cccc(O)c2=O)nn1`, for which the inhibition result in data set [3], in data set [4] and in data set [5] was “inactive” each time.
On to `O=c1c(O)cccn1CCCCCn1cc(-c2ccccc2)nn1`, for which the inhibition entry in data set [3], in data set [4] and in [5] was “inactive” throughout.
Turning to `Oc1cccn(CCCCn2cc(-c3ccccc3)nn2)c1=S`, the figures for the half-inhibitory concentration (IC50) (at Histone deacetylase 8; in [8]) were 3.3 µM and 1.08 µM, respectively. In addition, the inhibition in data set [2] is < 20%.
As for `Cc1cccc(-c2cn(CCCCCn3cccc(O)c3=S)nn2)c1`, the results for the half-maximal inhibitory concentration (IC50) (at Histone deacetylase 8; in [8]) were 1.66 µM and 1.1 µM, respectively. For the same compound, the inhibition in data set [2] was < 20%.
Turning to `Oc1cccn(CCCn2cc(-c3ccccc3)nn2)c1=S`, in data set [8], the IC50 amounted to 3.63 µM. Besides, the inhibition in data set [2] is < 20%.
For the compound `Oc1cccn(CCn2cc(-c3ccccc3)nn2)c1=S`, the figures for the inhibition in data set [1] and in data set [2] were 14% and < 20%, respectively.
Regarding `CN(C)c1ccc(-c2cn(CCCCCn3cccc(O)c3=S)nn2)cc1`, in [2], the inhibition was < 20%.
`O=c1c(O)cccn1CCCn1cc(-c2ccccc2)nn1`: the inhibition result in data set [3], in data set [4] and in [5] was “inactive” throughout.
As to `N#Cc1ccc(-c2cn(CCCCCn3cccc(O)c3=S)nn2)cc1C(F)(F)F`, the inhibition in data set [2] is < 20%.
`O=c1c(O)cccn1CCn1cc(-c2ccccc2)nn1`: the inhibition result in data set [3], in data set [4] and in data set [5] was “inactive” throughout.
`Cc1ccc(-c2cn(CCCCCn3cccc(O)c3=O)nn2)cc1`: the inhibition entry in data set [3], in [4] and in [5] was “inactive” throughout.
